Laboratory results from patent publication US20150223457A1, “METHOD OF COMBATTING SOYBEAN SUDDEN DEATH SYNDROME USING SUBSTITUTED PYRAZOLAMIDES” (Syngenta Participations AG, priority 2012, published 2015).

How the values were obtained:
Fusarium virguliforme [1] = test: Seed treatment efficacy against soybean sudden death syndrome (inoculated seeds in rolled paper towels); assay type: in vivo; settings: fungicide rate 2.5 mg a.i./100 kg seed; soybean cultivar S36-B6, isolate 10-118, hypocotyls and roots, 19 days at 18° C., mean of 3 replications
Experimental: A study was conducted to determine the efficacy of the compound No. 1.001 against F. virguliforme the causal agent of the sudden death syndrome on soybeans. Soybean seeds of the cultivar S36-B6 were treated with the compound No. […] […] Ten soybean seeds were placed on a paper towel (Scotts paper towels, 25.4 cm×33.02 cm in size) that has been previously moistened with 40 milliliters of water. Seeds were inculated with 100 microliters of a F. virguliforme conidial suspension adjusted to 100,000 conidia per milliliter of water. The isolate with the identification number 10-118 of F. virguliforme was used used in this study since it is sensitive to fludioxonil. Inoculated seeds seeds were then covered with another paper towel. Starting at one end, the paper towels with seeds were rolled loosely in a cylinder-fashion. The rolled paper towels with the inoculated seeds were placed into a zipped plastic bag. Bags were labelled with the fungicide treatment and dated. Bags with seeds were then placed in a growth room at a temperature of 18° C. and 12 h photoperiod for 19 days. The study was conducted using a completely randomized design with 3 replications. Disease severity was conducted on the hypocotyls and roots and measured as percentage.

Fusarium virguliforme [2] = test: Sensitivity of F. virguliforme isolates: mycelial growth inhibition on amended potato dextrose agar plates; assay type: cell-based; settings: for ED50 (effective dose for 50% of the fungal growth inhibition): potato dextrose agar, 20° C., 9 days
Experimental: The sensitivity of 4 F. virguliforme isolates to the compound No. 1.001 was determined by comparing the mycelial growth inhibition of on potato dextrose agar plates amended or not with the compound No. 1.001. The compound No. 1.001 was tested at the following concentrations: 0, 0.001, 0.01, 0.1, 1 and 10 mg.ai./L. The fungicide fludioxonil (commercial formulation Maxim 4 FS) was included in the sensitivity study. The plates were incubated at 20° C. for 9 days. The sensitivity test was set in a completely randomized design with 2 replications for each concentration of fungicide tested. Data obtained for each isolate was transformed using an arcsine transformation. The effective dose for 50% of the fungal growth inhibition (ED50 values) was calculated by regressing the transformed growth inhibition data against the log of the fungicide concentration.

## N#Cc1c[nH]cc1-c1cccc2c1OC(F)(F)O2 [Fludioxonil, fludioxonil]
Fusarium virguliforme [1]
  % disease severity: 20.9%
Fusarium virguliforme [2]; isolate 10-118
  ED50 (effective dose for 50% of the fungal growth inhibition): 0.206 mg ai/L
Fusarium virguliforme [2]; isolate 10-119
  ED50 (effective dose for 50% of the fungal growth inhibition): >10 mg ai/L
Fusarium virguliforme [2]; isolate 10-120
  ED50 (effective dose for 50% of the fungal growth inhibition): >10 mg ai/L
Fusarium virguliforme [2]; isolate 10-230
  ED50 (effective dose for 50% of the fungal growth inhibition): >10 mg ai/L
Fusarium virguliforme [2]; one isolate of 4
  sensitivity of isolate to the fungicide (in words): sensitive
Fusarium virguliforme [2]; the other 3 isolates of 4
  dose response of isolates to the fungicide (in words): not a dose response
